These results are taken from ChEMBL document CHEMBL1148751, “Optimization of the indenone ring of indenoisoquinoline topoisomerase I inhibitors” (2007).

Holding throughout (assay type): functional
The test system of assay [1] is HOP-62. In words: Cytotoxicity against human HOP62 cells.
The test system of assay [2] is UACC-62. As to the kind of experiment: Cytotoxicity against human UACC62 cells.
Assay [3] deals with MDA-MB-435. In words: Cytotoxicity against human MDA-MB-435 cells.
In assay [4] the test system is HCT-116. In words: Cytotoxicity against human HCT116 cells.
Assay [5] relates to OVCAR-3. As to the kind of experiment: Cytotoxicity against human OVCAR-3 cells.
The test system of assay [6] is DU-145. As to the kind of experiment: Cytotoxicity against human DU145 cells.
Assay [7] concerns SF-539. In words: Cytotoxicity against human SF539 cells.
In assay [8] the test system is SN12C. As to the kind of experiment: Cytotoxicity against human SN12C cells.

Usually GI50 stands for the concentration at which growth is held to half of that of the control. A low value points to greater sensitivity of the cells.

The compound `O=C1c2ccccc2-c2c1c1ccc([N+](=O)[O-])cc1c(=O)n2CCCCl` came in with a GI50 in assay [1] of 43.6 µM.

In assay [2], `[N-]=[N+]=NCCCn1c2c(c3ccc([N+](=O)[O-])cc3c1=O)C(=O)c1ccccc1-2` had a GI50 of 29.5 µM.

For the compound `COc1ccc2c(c1)C(=O)c1c-2n(CCCN=[N+]=[N-])c(=O)c2cc([N+](=O)[O-])ccc12`, the GI50 in assay [1] is < 0.001 µM; in assay [3] it was 0.251 µM; in assay [4] it was < 0.001 µM; in assay [5] it was 0.155 µM; in assay [6], < 0.001 µM; in assay [7], < 0.001 µM.

Turning to `COc1cc2c3c(n(CCCN=[N+]=[N-])c(=O)c2cc1OC)-c1ccc(N)cc1C3=O`, the GI50 in assay [2] was 0.026 µM; in assay [1] it was 0.051 µM; in assay [3], 0.214 µM; in assay [4] it was 0.047 µM; in assay [5], 0.214 µM; in assay [6] it was 0.059 µM. The values for the GI50 in assay [7] and in assay [8] were 0.05 µM and 0.148 µM, respectively.

Consider `COc1cc2c3c(n(CCCN=[N+]=[N-])c(=O)c2cc1OC)-c1ccc(N(C)C)cc1C3=O`, for which the GI50 in assay [2], in assay [1], in assay [3], in assay [5], in assay [6] and in assay [7] was > 100 µM throughout. For the same compound, in assay [8], the GI50 was > 100 µM.

Regarding `CCc1ccc2c(c1)C(=O)c1c-2n(CCCN=[N+]=[N-])c(=O)c2cc(OC)c(OC)cc12`, the GI50 in assay [2] is 91.2 µM; in assay [1], 56.2 µM; in assay [3] it was > 100 µM; in assay [5], > 100 µM; in assay [6], > 100 µM; in assay [7], 57.5 µM. Further, the GI50 in assay [8] is > 100 µM.

As for `COc1cc2c3c(n(CCCN=[N+]=[N-])c(=O)c2cc1OC)-c1ccccc1C3=O`, the GI50 in assay [2] is 2.63 µM; in assay [1], 3.55 µM; in assay [3] it was 9.77 µM; in assay [4] it was 1.82 µM; in assay [5], 4.57 µM; in assay [6], 28.2 µM. Besides, the values for the concentration for 50% growth inhibition (GI50) in assay [7] and in assay [8] were 4.68 µM and 13.8 µM, respectively.

As for `COc1cc2c3c(n(CCCN=[N+]=[N-])c(=O)c2cc1OC)-c1ccc(F)cc1C3=O`, the GI50 in assay [2] came to 5.25 µM; in assay [1], 4.17 µM; in assay [3], 38 µM; in assay [4], 4.17 µM; in assay [5], 6.17 µM; in assay [6], 4.17 µM. Besides, the 50% growth inhibitory concentration (GI50) in assay [7] was determined as 3.24 µM; in assay [8] it was 8.32 µM.

For the compound `COc1cc2c3c(n(CCCN=[N+]=[N-])c(=O)c2cc1OC)-c1ccc(C#N)cc1C3=O`, the GI50 in assay [2] was 12.3 µM; in assay [1], 14.1 µM; in assay [3], > 100 µM; in assay [4], 24 µM; in assay [5] it was 17 µM; in assay [6] it was 33.9 µM. Moreover, the GI50 in assay [7] was 17.4 µM; in assay [8] it was 15.5 µM.

Consider `COc1cc2c3c(n(CCCN=[N+]=[N-])c(=O)c2cc1OC)-c1ccc([N+](=O)[O-])cc1C3=O`, for which the GI50 in assay [2] is 69.2 µM; in assay [1] it was 89.1 µM; in assay [3], > 100 µM; in assay [4], > 100 µM; in assay [5] it was > 100 µM; in assay [6], 34.7 µM. Moreover, the 50% growth inhibitory concentration (GI50) is 38.9 µM in assay [7] and > 100 µM in assay [8].

Consider `COc1cc2c3c(n(CCCN)c(=O)c2cc1OC)-c1ccc(N)cc1C3=O`, for which the GI50 in assay [2] was found to be 1.38 µM; in assay [3], 4.17 µM; in assay [4] it was 0.263 µM; in assay [5], 1.82 µM; in assay [6], 2.4 µM; in assay [7], 0.316 µM. Besides, it took 2.57 µM to inhibit growth in assay [8] by half (GI50).

Regarding `COc1cc2c3c(n(CCCN)c(=O)c2cc1OC)-c1ccc(N(C)C)cc1C3=O`, the GI50 worked out at 21.9 µM in assay [2]; 17 µM in assay [1]; 17.8 µM in assay [3]; 3.63 µM in assay [4]; 17.8 µM in assay [5]; 2.4 µM in assay [6]. In addition, the GI50 in assay [7] was determined as 1.9 µM; in assay [8] it was 17 µM.

Take `COC(=O)c1ccc2c(c1)C(=O)c1c-2n(CCCCl)c(=O)c2cc(OC)c(OC)cc12`: the GI50 in assay [2], in assay [1], in assay [3], in assay [4], in assay [5] and in assay [6] was > 100 µM each time. Moreover, the GI50 in assay [8] is > 100 µM.

`Cc1ccc2c(c1)C(=O)c1c-2n(CCCN)c(=O)c2cc([N+](=O)[O-])ccc12`: the GI50 in assay [1] was found to be 0.191 µM; in assay [3], 0.316 µM; in assay [4], 0.229 µM; in assay [5] it was 0.324 µM; in assay [6], 0.115 µM; in assay [7], 0.603 µM. The compound also yielded a GI50 in assay [8] of 0.229 µM.

Regarding `NCCCn1c2c(c3ccc([N+](=O)[O-])cc3c1=O)C(=O)c1ccccc1-2`, the GI50 is < 0.005 µM in assay [4], 0.014 µM in assay [6] and 0.009 µM in assay [8].

With `NCCCn1c2c(c3ccc([N+](=O)[O-])cc3c1=O)C(=O)c1cc(Cl)ccc1-2`, the GI50 in assay [2], in assay [1], in assay [4], in assay [6], in assay [7] and in assay [8] was < 0.01 µM throughout.

Turning to `O=C1c2cc(F)ccc2-c2c1c1ccc([N+](=O)[O-])cc1c(=O)n2CCCBr`, the 50% growth inhibitory concentration (GI50) amounted to 2.29 µM in assay [2]; 2.29 µM in assay [1]; 37.2 µM in assay [3]; 7.24 µM in assay [4]; 46.8 µM in assay [5]; 3.39 µM in assay [6]. This compound also displayed a GI50 in assay [8] of 27.5 µM.

As to `O=C1c2cc(Br)ccc2-c2c1c1ccc([N+](=O)[O-])cc1c(=O)n2CCCCl`, the GI50 was determined as 3.63 µM in assay [1]; 0.282 µM in assay [3]; 3.72 µM in assay [4]; 0.575 µM in assay [5]; 0.214 µM in assay [6]; 0.661 µM in assay [7]. Also, the GI50 in assay [8] is 0.019 µM.

For `COc1ccc2c(c1)C(=O)c1c-2n(CCCN)c(=O)c2cc(OC)c(OC)cc12`, the GI50 was 0.427 µM in assay [2]; < 0.01 µM in assay [1]; 1.7 µM in assay [3]; 0.054 µM in assay [4]; 0.389 µM in assay [5]; < 0.01 µM in assay [6]. In addition, the GI50 in assay [7] was 0.115 µM; in assay [8], 0.141 µM.

Regarding `CCc1ccc2c(c1)C(=O)c1c-2n(CCCN)c(=O)c2cc(OC)c(OC)cc12`, the GI50 in assay [2] amounted to 1.82 µM; in assay [1] it was 1.82 µM; in assay [3], 2 µM; in assay [5] it was 1.51 µM; in assay [6], 1.62 µM; in assay [7] it was 1.62 µM. The compound further had a GI50 in assay [8] of 1.74 µM.

On to `COc1cc2c3c(n(CCCN)c(=O)c2cc1OC)-c1ccc(F)cc1C3=O`, for which the GI50 in assay [2] amounted to 3.39 µM; in assay [1] it was 0.603 µM; in assay [3], 6.03 µM; in assay [4] it was 1.38 µM; in assay [5], 6.31 µM; in assay [6], 0.575 µM. Further, the GI50 in assay [7] came out at 1.12 µM; in assay [8], 4.36 µM.

Regarding `COc1cc2c3c(n(CCCN)c(=O)c2cc1OC)-c1ccc(C#N)cc1C3=O`, the GI50 in assay [2] was found to be 17 µM; in assay [1] it was 3.98 µM; in assay [3], 18.6 µM; in assay [4] it was 15.9 µM; in assay [5] it was 19.1 µM; in assay [6] it was 12.3 µM. The same compound registered a GI50 in assay [8] of 16.6 µM.

As to `COc1cc2c3c(n(CCCN)c(=O)c2cc1OC)-c1ccc([N+](=O)[O-])cc1C3=O`, the GI50 turned out to be 11.5 µM in assay [2]; 0.617 µM in assay [1]; 15.8 µM in assay [3]; 1.32 µM in assay [4]; 16.6 µM in assay [5]; 2.09 µM in assay [6]. The GI50 stood at 3.72 µM in assay [7] and 11.7 µM in assay [8].

With `COc1ccc2c(c1)C(=O)c1c-2n(CCCN=[N+]=[N-])c(=O)c2cc(OC)c(OC)cc12`, the GI50 is 20.9 µM in assay [2]; 11.5 µM in assay [1]; > 100 µM in assay [3]; 27.5 µM in assay [4]; 49 µM in assay [5]; 26.3 µM in assay [6]. Moreover, the GI50 in assay [7] was 56.2 µM; in assay [8], 64.6 µM.

As for `COc1cc2c3c(n(CCCN)c(=O)c2cc1OC)-c1ccccc1C3=O`, the GI50 in assay [2] is 2.88 µM; in assay [1], 0.151 µM; in assay [3], 0.631 µM; in assay [4] it was < 0.01 µM; in assay [5] it was 0.085 µM; in assay [6], 2.63 µM. For the same compound, the GI50 in assay [7] came out at 2.82 µM; in assay [8] it was 0.794 µM.

As to `COC(=O)c1ccc2c(c1)C(=O)c1c-2n(CCCN)c(=O)c2cc(OC)c(OC)cc12`, the GI50 came out at 17.4 µM in assay [2]; 3.72 µM in assay [1]; 18.2 µM in assay [3]; 16.6 µM in assay [4]; 16.6 µM in assay [5]; 17.8 µM in assay [6]. The GI50 in assay [7] was 15.8 µM; in assay [8], 15.1 µM.

On to `COC(=O)c1ccc2c(c1)C(=O)c1c-2n(CCCN=[N+]=[N-])c(=O)c2cc(OC)c(OC)cc12`, for which the GI50 in assay [2], in assay [1], in assay [3], in assay [4], in assay [5] and in assay [6] was > 100 µM each time. In addition, the 50% growth inhibitory concentration (GI50) in assay [7] and in assay [8] was > 100 µM throughout.

`COc1ccc2c(c1)C(=O)c1c-2n(CCCN)c(=O)c2cc([N+](=O)[O-])ccc12`: the GI50 in assay [2], in assay [1], in assay [4], in assay [7] and in assay [8] was < 0.01 µM throughout.

For `COc1cc2c3c(n(C)c(=O)c2cc1OC)-c1cc2c(cc1C3=O)OCO2`, the GI50 was 4.2 µM in assay [2]; 1.3 µM in assay [1]; 96 µM in assay [3]; 35 µM in assay [4]; 37 µM in assay [6]; 68 µM in assay [8].
